From patent US8138374B2, “Composition for external application to skin” (Shiseido Company, Ltd., priority 2007, dated 2012)

Experiment: Solubility evaluation (appearance and solubility)
Assay type: physicochemical
Conditions: for Solubility (%) Ethanol / Solubility (%) Water / Appearance (Room Temperature): room temperature; for Solubility (%) Ethanol / Solubility (%) Water: judged by appearance, ">" = concentration at which dissolution was confirmed, actual solubility greater than or equal
Procedure: Furthermore, dissolution was evaluated based on appearance after preparing a solution at room temperature. The solubilities shown in the table indicate the concentration at which dissolution was confirmed, and those results shown with a “>” symbol in the table indicate the concentration at which the substance was confirmed to dissolve, and actual solubility is greater than or equal to this concentration.

solubility in ethanol (in words) (ethanol) | Solubility (%) Ethanol (ethanol) | solubility in water (in words) (water) | Solubility (%) Water (water) | Appearance (Room Temperature) | Compound
poorly soluble | 0.10% | high solubility | 71.5% | – | CNCC(=O)O [Sarcosine, reference compound]
– | >14.1% | – | >77% | White crystal | CNCC(=O)N(C)C.Cl [N,N-dimethyl-2-(methylamino)acetoamide hydrochloride]
– | >58% | – | >55% | Liquid | CNCC(=O)N(C)C [N,N-dimethyl-2-(methylamino)acetoamide]
